According to article PMC7190177, “Click chemistry-facilitated comprehensive identification of proteins adducted by antimicrobial 5-nitroimidazoles for discovery of alternative drug targets against giardiasis” (PLoS Neglected Tropical Diseases, 2020):

Legend:
[1] = target: T1, Enolase (Giardia duodenalis, UniProt E2RTS6); test: click biotinylation, streptavidin pull-down from treated trophozoites, LC-MS/MS and immunoblot; type: cell-based; settings: covalent; prodrug reduced in the cells; 100 uM, 2 h
T1 construct: gene GL50803_0011118; native protein in trophozoites, 445 aa
T1 sequence (E2RTS6 1-445): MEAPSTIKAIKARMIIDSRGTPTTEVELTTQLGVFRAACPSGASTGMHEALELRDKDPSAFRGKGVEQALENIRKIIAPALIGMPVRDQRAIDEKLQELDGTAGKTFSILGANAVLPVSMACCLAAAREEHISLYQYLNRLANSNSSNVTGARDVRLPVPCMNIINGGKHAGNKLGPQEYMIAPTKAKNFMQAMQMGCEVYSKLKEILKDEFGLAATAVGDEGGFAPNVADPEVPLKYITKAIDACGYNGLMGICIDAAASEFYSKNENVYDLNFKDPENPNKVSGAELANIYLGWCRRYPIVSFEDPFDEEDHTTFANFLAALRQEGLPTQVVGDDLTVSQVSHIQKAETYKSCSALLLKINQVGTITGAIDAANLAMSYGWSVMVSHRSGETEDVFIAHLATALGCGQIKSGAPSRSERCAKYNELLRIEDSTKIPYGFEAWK

[2] = target: T2, Arginine deiminase (ADI) (Giardia duodenalis, UniProt E2RU36); test: colorimetric citrulline-detection assay of recombinant His-tagged ADI; type: biochemical; settings: 500 uM Mz-alkyne + 1 mM dithionite (reductive activation of prodrug), 2 h; 1 mM arginine, Hepes pH 7.0, 37 C; covalent
T2 construct: gene GL50803_00112103; full-length 580 aa, C-terminal His tag (pETite C-His), E. coli BL21-CodonPlus(DE3)-RIL
T2 sequence (E2RU36 entry or part of it): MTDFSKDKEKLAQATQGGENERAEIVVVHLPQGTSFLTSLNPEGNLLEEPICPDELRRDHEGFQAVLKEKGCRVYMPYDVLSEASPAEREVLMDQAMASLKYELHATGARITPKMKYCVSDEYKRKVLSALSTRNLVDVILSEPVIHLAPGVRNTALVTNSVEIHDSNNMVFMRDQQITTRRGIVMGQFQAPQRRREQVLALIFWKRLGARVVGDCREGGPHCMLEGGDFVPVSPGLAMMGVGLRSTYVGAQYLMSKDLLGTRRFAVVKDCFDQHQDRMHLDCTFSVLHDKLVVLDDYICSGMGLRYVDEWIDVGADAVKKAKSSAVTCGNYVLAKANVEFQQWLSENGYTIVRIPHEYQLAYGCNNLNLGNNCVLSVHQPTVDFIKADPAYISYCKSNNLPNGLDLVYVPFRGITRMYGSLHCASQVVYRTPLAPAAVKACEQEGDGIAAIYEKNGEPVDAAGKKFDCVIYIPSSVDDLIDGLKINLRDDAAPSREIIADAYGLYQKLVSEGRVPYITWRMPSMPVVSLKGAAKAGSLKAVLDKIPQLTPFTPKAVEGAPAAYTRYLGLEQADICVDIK

[3] = target: T3, Ornithine carbamoyltransferase (OCT) (Giardia duodenalis, UniProt E2RTT6); test: click biotinylation, streptavidin pull-down from treated trophozoites, LC-MS/MS and immunoblot; type: cell-based; settings: covalent; prodrug reduced in the cells; 100 uM, 2 h
T3 construct: gene GL50803_0010311; native protein in trophozoites, 327 aa
T3 sequence (E2RTT6 1-327): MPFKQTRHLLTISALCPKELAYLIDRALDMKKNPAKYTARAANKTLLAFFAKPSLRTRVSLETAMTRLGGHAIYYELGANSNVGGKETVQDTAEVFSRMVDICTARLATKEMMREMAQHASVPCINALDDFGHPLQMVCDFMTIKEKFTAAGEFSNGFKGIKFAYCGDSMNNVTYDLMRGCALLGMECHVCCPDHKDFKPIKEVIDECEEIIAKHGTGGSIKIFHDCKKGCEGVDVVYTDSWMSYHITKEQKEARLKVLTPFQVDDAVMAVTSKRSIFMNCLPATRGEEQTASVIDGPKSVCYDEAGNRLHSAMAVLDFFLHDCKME

## C#CCCn1c([N+](=O)[O-])cnc1C [Mz-alkyne, 1-(But-3-ynyl)-2-methyl-5-nitro-1H-imidazole]
[1]
  adduct: these proteins were labeled with biotin and thus adducted by Mz-alkyne
[2]
  inhibition: Wild-type ADI was significantly inhibited by activated Mz-alkyne under cell-free conditions
[3]
  adduct: these proteins were labeled with biotin and thus adducted by Mz-alkyne
